Data on one compound can be found in paper PMC11866408, “LOPAC library screening identifies suramin as a TRIM21 binder with a unique binding mode revealed by crystal structure” (Acta Crystallographica Section F: Structural Biology …, 2025).

For experiment [1], the target named is T1, TRIM21 PRYSPRY domain (human) (Homo sapiens, UniProt P19474).
T1 construct: PRYSPRY domain, residues Val287–Leu465, His6-SUMO tag cleaved
The experiment is described as follows: ITC; DSF shift […] K. The format is binding.

In experiment [2] the target is T2, TRIM21 PRYSPRY domain (mouse) (Mus musculus, UniProt Q62191).
T2 construct: PRYSPRY domain, residues Val291–Met470, N-terminal His6-tag
T2 sequence (Q62191 291-470): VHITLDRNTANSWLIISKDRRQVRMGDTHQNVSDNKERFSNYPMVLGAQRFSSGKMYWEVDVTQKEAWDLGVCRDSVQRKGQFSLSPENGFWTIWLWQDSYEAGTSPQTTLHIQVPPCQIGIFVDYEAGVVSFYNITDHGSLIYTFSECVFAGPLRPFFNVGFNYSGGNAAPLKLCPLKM
The experiment is described as follows: co-crystal structure at […] Å; ITC. The format is binding.

T1 sequence (P19474 287-465): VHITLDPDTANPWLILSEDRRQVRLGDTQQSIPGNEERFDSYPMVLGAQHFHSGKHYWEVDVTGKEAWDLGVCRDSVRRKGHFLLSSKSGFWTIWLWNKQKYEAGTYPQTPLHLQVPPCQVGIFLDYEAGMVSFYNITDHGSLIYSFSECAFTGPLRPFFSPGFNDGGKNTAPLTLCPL

For the compound `Cc1ccc(C(=O)Nc2ccc(S(=O)(=O)O)c3cc(S(=O)(=O)O)cc(S(=O)(=O)O)c23)cc1NC(=O)c1cccc(NC(=O)Nc2cccc(C(=O)Nc3cc(C(=O)Nc4ccc(S(=O)(=O)O)c5cc(S(=O)(=O)O)cc(S(=O)(=O)O)c45)ccc3C)c2)c1` [suramin], the Kd in experiment [1] was around 8 µM; in experiment [2] it was around 9 µM.
